Test system: human C-Myc gene transcription in MV-4-11 cells
Assay: Transcription of human C-Myc in human leukemic MV-4-11 cells (QuantiGene 2.0)
Type: cell-based
Settings: inhibition of C-Myc mRNA, 4 hours treatment
Experimental: b) Transcription of Human C-Myc in Human Leukemic MV-4-11 Cells:
The effect of compounds on transcription of human C-Myc gene is monitored in human B-myelomonocytic leukemia cell line MV-4-11 (from American Type Culture Collection (ATCC), Manassas, Va., USA) using QuantiGene 2.0 assay kit (Affymetrix, Santa Clara, Calif., USA).
Typically, 8,000 MV-4-11 cells are plated in sterile 96-well plates (Costar #3598 from Fisher Scientific Canada, Ottawa, Ontario, Canada) in Iscove's medium supplemented with 10% fetal bovine serum, glutamine (2 mM), and penicillin (100 I.U.) and streptomycin (100 μg/mL) (all from Wisent Inc., St. Bruno, Quebec, Canada). Compounds are dissolved in DMSO at 30 mM. A series of 1:3 dilutions are first made in DMSO, and further […] dilutions are made in serum-containing cell culture media. The final concentration of DMSO is […] in cell culture media. After cells are treated with various concentrations of test compound for 4 hours, cells are lysed using Quantigene 2.0 sample processing kit (#QS0100). C-Myc mRNA is detected using a QuantiGene 2.0 assay kit (#QS0009) with gene-specific probe to human C-Myc (#SA-50182) following the manufacturer's recommendations. Luminescene signals are read on Flexstation II microplate reader (Molecular Devices, Sunnyvale, Calif., USA). Percentage of inhibition of C-Myc transcription is analyzed using EXCEL (2010 version).

| IC50 (Homo sapiens, MV4-11, 4 h) [nM] | IC50 [nM] | SMILES |
| --- | --- | --- |
| 758 | – | Cc1cc(-c2ccc3ncc(S(=O)(=O)NC(C)C)n3c2)cn(C)c1=O [Compound 17, 6-(1,5-dimethyl-6-oxo-1,6-dihydropyridin-3-yl)-N-isopropylimidazo [1,2-a] pyridine-3-sulfonamide] |
| 912 | – | Cc1cc(-c2ccc3ncc(C(=O)NC4CCCCC4)n3c2)cn(C)c1=O [Compound 12, N-cyclohexyl-6-(1,5-dimethyl-6-oxo-1,6-dihydropyridin-3-yl)imidazo[1,2-a] pyridine-3-carboxamide] |
| 508 | – | Cc1cc(-c2ccc3ncc(S(=O)(=O)N4CCCCC4)n3c2)cn(C)c1=O [Compound 14, 1,3-dimethyl-5-(3-(piperidin-1-ylsulfonyl)imidazo[1,2-a]pyridin-6-yl)pyridin-2(1H)-one] |
| 865 | – | Cc1cc(-c2ccc3ncc(S(=O)(=O)NC4CCOCC4)n3c2)cn(C)c1=O [Compound 42, 6-(1,5-dimethyl-6-oxo-1,6-dihydropyridin-3-yl)-N-(tetrahydro-2H-pyran-4-yl)imidazo[1,2-a]pyridine-3-sulfonamide] |
| – | 898 | Cc1cc(-c2ccc3ncc(S(=O)(=O)NC4CCOC4)n3c2)cn(C)c1=O (single isomer, unassigned) [Compound 53, 6-(1,5-dimethyl-6-oxo-1,6-dihydropyridin-3-yl)-N-(tetrahydrofuran-3-yl) imidazo[1,2-a]pyridine-3-sulfonamide] |
| 851 | – | Cc1cc(-c2ccc3ncc(S(=O)(=O)C4CCCC4)n3c2)cn(C)c1=O [Compound 49, 5-(3-(cyclopentylsulfonyl)imidazo[1,2-a]pyridin-6-yl)-1,3-dimethylpyridin-2(1H)-one] |
| 2520 | – | CCNS(=O)(=O)c1cnc2ccc(-c3cc(C)c(=O)n(C)c3)cn12 [Compound 15, 6-(1,5-dimethyl-6-oxo-1,6-dihydropyridin-3-yl)-N-ethylimidazo[1,2-a] pyridine-3-sulfonamide] |
| 234 | – | Cc1cc(-c2ccc3ncc(COCC(F)(F)F)n3c2)cn(C)c1=O [Compound 34, 1,3-dimethyl-5-[3-(2,2,2-trifluoroethoxymethyl)imidazo[1,2-a]pyridin-6-yl]pyridin-2-one] |
| 24.9 | – | Cc1cc(-c2ccc3ncc(Nc4ccccc4)n3c2)cn(C)c1=O [Compound 30, 5-(3-anilinoimidazo[1,2-a]pyridin-6-yl)-1,3-dimethyl-pyridin-2-one] |
| 816 | – | Cc1cc(-c2ccc3ncc(CN4CCOCC4)n3c2)cn(C)c1=O [Compound 21, 1,3-dimethyl-5-[3-(morpholinomethyl)imidazo[1,2-a]pyridin-6-yl]pyridin-2-one] |
| 507 | – | Cc1cc(-c2ccc3ncc(S(=O)(=O)N4CCC[C@H]4C)n3c2)cn(C)c1=O [Compound 45, (R)-1,3-dimethyl-5-(3-((2-methylpyrrolidin-1-yl)sulfonyl)imidazo[1,2-a]pyridin-6-yl)pyridin-2(1H)-one] |
| 112 | – | Cc1cc(-c2ccc3ncc(CN4CCC(F)(F)CC4)n3c2)cn(C)c1=O [Compound 20, 5-[3-[(4,4-difluoro-1-piperidyl)methyl]imidazo[1,2-a]pyridin-6-yl]-1,3-dimethyl-pyridin-2-one] |
| – | 597 | Cc1cc(-c2ccc3ncc(S(=O)(=O)NC4CCCOC4)n3c2)cn(C)c1=O (centres unmarked) [Compound 44, 6-(1,5-dimethyl-6-oxo-1,6-dihydropyridin-3-yl)-N-(tetrahydro-2H-pyran-3-yl)imidazo[1,2-a]pyridine-3-sulfonamide] |
| – | 537 | Cc1cc(-c2ccc3ncc(S(=O)(=O)N(C)C4CCOC4)n3c2)cn(C)c1=O (single isomer, unassigned) [Compound 48, 6-(1,5-dimethyl-6-oxo-1,6-dihydropyridin-3-yl)-N-methyl-N-(tetrahydrofuran-3-yl)imidazo[1,2-a]pyridine-3-sulfonamide] |
| 2660 | – | Cc1cc(-c2ccc3ncc(C(=O)N4CCCCC4)n3c2)cn(C)c1=O [Compound 13, 1,3-dimethyl-5-(3-(piperidine-1-carbonyl)imidazo[1,2-a]pyridin-6-yl)pyridin-2(1H)-one] |
| 32.2 | – | Cc1nc2ccc(-c3cc(C)c(=O)n(C)c3)cn2c1Cc1ccccc1 [Compound 24, 5-(3-benzyl-2-methyl-imidazo[1,2-a]pyridin-6-yl)-1,3-dimethyl-pyridin-2-one] |
| 151 | – | Cc1nc2ccc(-c3cc(C)c(=O)n(C)c3)cn2c1Cc1ccccn1 [Compound 54, 1,3-dimethyl-5-[2-methyl-3-(2-pyridylmethyl)imidazo[1,2-a]pyridin-6-yl] pyridin-2-one] |

| IC50 (Homo sapiens, MV4-11, 4 h) [nM] | IC50 [nM] | SMILES |
| --- | --- | --- |
| – | 253 | Cc1cc(-c2ccc3ncc(S(=O)(=O)NC4CCCOC4)n3c2)cn(C)c1=O (centres unmarked) [Compound 43, 6-(1,5-dimethyl-6-oxo-1,6-dihydropyridin-3-yl)-N-(tetrahydro-2H-pyran-3-yl)imidazo[1,2-a]pyridine-3-sulfonamide] |
| – | 91.3 | COC(c1ccccc1)c1cnc2ccc(-c3cc(C)c(=O)n(C)c3)cn12 (centres unmarked) [Compound 6, 5-[3-[methoxy(phenyl)methyl]imidazo[1,2-a]pyridin-6-yl]-1,3-dimethyl-pyridin-2-one] |
| 92.8 | – | COC(c1ccccc1)c1cnc2ccc(-c3cc(C)c(=O)n(C)c3)cn12 (centres unmarked) [Compound 7, 5-[3-[methoxy(phenyl)methyl]imidazo[1,2-a]pyridin-6-yl]-1,3-dimethyl-pyridin-2-one] |
| 2730 | – | Cc1cc(-c2ccc3ncc(C(=O)N4CCOCC4)n3c2)cn(C)c1=O [Compound 11, 1,3-dimethyl-5-(3-(morpholine-4-carbonyl)imidazo[1,2-a]pyridin-6-yl) pyridin-2(1H)-one] |
| 178 | – | Cc1cc(-c2ccc3ncc(S(=O)(=O)N4CCC[C@@H]4C)n3c2)cn(C)c1=O [Compound 46, (S)-1,3-dimethyl-5-(3-((2-methylpyrrolidin-1-yl)sulfonyl)imidazo[1,2-a]pyridin-6-yl)pyridin-2(1H)-one] |
| 492 | – | Cc1cc(-c2ccc3ncc(CN4CCCCC4=O)n3c2)cn(C)c1=O [Compound 26, 1,3-dimethyl-5-[3-[(2-oxo-1-piperidyl)methyl]imidazo[1,2-a]pyridin-6-yl]pyridin-2-one] |
| 731 | – | Cc1cc(-c2ccc3ncc(S(=O)(=O)N(C)C4CCOC4)n3c2)cn(C)c1=O (single isomer, unassigned) [Compound 47, 6-(1,5-dimethyl-6-oxo-1,6-dihydropyridin-3-yl)-N-methyl-N-(tetrahydrofuran-3-yl)imidazo[1,2-a]pyridine-3-sulfonamide] |
| 93.7 | – | Cc1cc(-c2ccc3ncc(S(=O)(=O)NC4CCCCC4)n3c2)cn(C)c1=O [Compound 18, N-cyclohexyl-6-(1,5-dimethyl-6-oxo-1,6-dihydropyridin-3-yl)imidazo[1,2-a]pyridine-3-sulfonamide] |
| 9.8 | – | Cc1cc(-c2ccc3ncc(NC4CCCC4)n3c2)cn(C)c1=O [Compound 22, 5-[3-(cyclopentylamino)imidazo[1,2-a]pyridin-6-yl]-1,3-dimethyl-pyridin-2-one] |
| 81.3 | – | Cc1cc(-c2ccc3ncc(S(=O)(=O)NC4CCCC4)n3c2)cn(C)c1=O [Compound 16, N-cyclopentyl-6-(1,5-dimethyl-6-oxo-1,6-dihydropyridin-3-yl)imidazo[1,2-a]pyridine-3-sulfonamide] |
| 891 | – | Cc1cc(-c2ccc3ncc(S(=O)(=O)NC4CCOC4)n3c2)cn(C)c1=O (single isomer, unassigned) [Compound 52, 6-(1,5-dimethyl-6-oxo-1,6-dihydropyridin-3-yl)-N-(tetrahydrofuran-3-yl) imidazo[1,2-a]pyridine-3-sulfonamide] |
| 2370 | – | CO[C@H]1CCN(S(=O)(=O)c2cnc3ccc(-c4cc(C)c(=O)n(C)c4)cn23)C1 [Compound 50, (S)-5-(3-((3-methoxypyrrolidin-1-yl)sulfonyl)imidazo[1,2-a]pyridin-6-yl)-1,3-dimethylpyridin-2(1H)-one] |
| 16.5 | – | Cc1cc(-c2ccc3ncc(NCC4CCCC4)n3c2)cn(C)c1=O [Compound 23, 5-[3-(cyclopentylmethylamino)imidazo[1,2-a]pyridin-6-yl]-1,3-dimethyl-pyridin-2-one] |
| 153 | – | Cc1nc2ccc(-c3cc(C)c(=O)n(C)c3)cn2c1Cc1ccncc1 [Compound 56, 1,3-dimethyl-5-[2-methyl-3-(4-pyridylmethyl)imidazo[1,2-a]pyridin-6-yl] pyridin-2-one] |
| 170 | – | Cc1cc(-c2ccc3ncc(S(=O)(=O)N4CCCC4)n3c2)cn(C)c1=O [Compound 19, 1,3-dimethyl-5-(3-(pyrrolidin-1-ylsulfonyl)imidazo[1,2-a]pyridin-6-yl)pyridin-2(1H)-one] |
| 84.5 | – | Cc1nc2ccc(-c3cc(C)c(=O)n(C)c3)cn2c1Cc1cccnc1 [Compound 55, 1,3-dimethyl-5-[2-methyl-3-(3-pyridylmethyl)imidazo[1,2-a]pyridin-6-yl] pyridin-2-one] |
| 615 | – | CO[C@@H]1CCN(S(=O)(=O)c2cnc3ccc(-c4cc(C)c(=O)n(C)c4)cn23)C1 [Compound 51, (R)-5-(3-((3-methoxypyrrolidin-1-yl)sulfonyl)imidazo [1,2-a]pyridin-6-yl)-1,3-dimethylpyridin-2(1H)-one] |

| SMILES | IC50 (Homo sapiens, MV4-11, 4 h) [nM] | IC50 [nM] |
| --- | --- | --- |
| Cc1cc(-c2ccc3ncc(COC4CCC4)n3c2)cn(C)c1=O [Compound 25, 5-[3-(cyclobutoxymethyl)imidazo[1,2-a]pyridin-6-yl]-1,3-dimethyl-pyridin-2-one] | 174 | – |
